Measured values taken from PubChem BioAssay (NCI).
Where “and” joins values, the source holds several entries; their conditions need not be identical. Identical values can stand only once.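 Grown in 96-well plates, cells were treated for 48 hours with each compound at five concentrations. Insufficient inhibition: endpoint recorded as highest concentration tested. GI50 marks 50% less growth. At the TGI there is no net growth.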

How the values were obtained:
Experiment in all cases: NCI-60 cell line screen, 48 h
[1] = tested on: SN12C renal
[2] = tested on: U251 CNS
[3] = tested on: HOP-62 NSCLC
[4] = tested on: UO-31 renal
[5] = tested on: KM12 colon
[6] = tested on: RXF 393 renal
[7] = tested on: MALME-3M melanoma
[8] = tested on: SNB-19 CNS
[9] = tested on: K-562 leukemia
[10] = tested on: CAKI-1 renal

| Compound | GI50 [1] | TGI [1] | GI50 [2] | TGI [2] [µM] | GI50 [3] | TGI [3] | GI50 [4] | TGI [4] | GI50 [5] | TGI [5] | GI50 [6] | TGI [6] | GI50 [7] | TGI [7] [µM] | GI50 [8] | TGI [8] | GI50 [9] | TGI [9] [µM] | GI50 [10] | TGI [10] [µM] |
| --- | --- | --- | --- | --- | --- | --- | --- | --- | --- | --- | --- | --- | --- | --- | --- | --- | --- | --- | --- | --- |
| Cc1ccc(-c2nc(N)nc3c2nnn3Cc2cccc(CO[C@H]3CCOC3)n2)o1 | > 100 µM | > 100 µM | > 100 µM | > 100 | > 100 µM | > 100 µM | > 100 µM | > 100 µM | > 100 µM | > 100 µM | > 100 µM | > 100 µM | > 100 µM | > 100 | > 100 µM | > 100 µM | > 100 µM | > 100 | > 100 µM | > 100 |
| C=CCN1C=CC(=O)[C@H](O[Si](C)(C)C(C)(C)C)[C@@H]1/C=C/c1ccccc1 | 13.8 µM | 27.3 µM | 12.4 µM | 25.2 | 15.1 µM | 28.9 µM | 9.19 µM | 25.1 µM | 13.1 µM | 28.7 µM | 19 µM | 46.1 µM | 17.3 µM | 34.3 | 20.7 µM | 35.3 µM | 9.56 µM | 31.3 | 15.7 µM | 32.7 |
| COc1cc(C(c2cc3c(cc2O)OCO3)N2CCCCC2)cc(OC)c1OC (configuration not stated) | – | 25.1 µM | – | 30.2 | – | > 70.9 µM | – | 28.3 µM | – | 34 µM | – | 27.6 µM | – | 26.1 | – | 46.9 µM | – | > 21.3 | – | 27.6 |
| COC(=O)c1c2c(c(C)[n+]([O-])c1C)C(=O)C=C(NCc1ccc(OC)cc1)C2=O | 1.69 µM | 4.3 µM | 2.05 µM | 5.48 | 2.48 µM | 7.84 µM | 2.2 µM | 6.83 µM | 1.67 µM | 6.63 µM | 2.02 µM | 5.99 µM | 0.3 µM | 0.845 | 2.12 µM | 5.58 µM | 2.68 µM | 15.3 | 1.5 µM | 6.81 |
| C[C@]12CC[C@H](OCCC#N)CC1=CC[C@@H]1C2CC[C@]2(C)/C(=N/OCCC#N)CCC12 (some centres not stated) | – | > 100 µM | – | > 100 | – | > 100 µM | – | > 100 µM | – | > 100 µM | – | > 73.9 µM | – | > 100 | – | 97.9 µM | – | > 100 | – | > 100 |
| Cc1nc2cc(N)c(F)cc2[nH]1 | – | > 100 µM | – | > 100 | – | > 100 µM | – | > 100 µM | – | > 100 µM | – | > 100 µM | – | > 100 | – | > 100 µM | – | > 100 | – | > 100 |
| CC1(C)CCC[C@@]2(C)C1CC[C@H]1CC(O)C3(C)CCC12C3 (some centres not stated) | – | 30.7 µM | – | 32.3 | – | 34.5 µM | – | 33.3 µM | – | 31.3 µM | – | 26.1 µM | – | 30.7 | – | 31.9 µM | – | > 100 | – | 32 |
| Nc1ncn(C2C=C(CO)C(O)C2O)c(=O)n1 (configuration not stated) | – | > 100 µM | – | > 100 | – | > 100 µM | – | > 100 µM | – | > 100 µM | – | > 100 µM | – | > 100 | – | > 100 µM | – | > 100 | – | > 100 |
| Nc1cc(-c2cccc(OC(F)(F)F)c2)nc2ccc(N3CCCC3)cc12 | 0.113 µM and 0.0716 µM and 0.0692 µM | 19.7 µM and > 100 µM | 0.041 µM and 0.0391 µM and 0.0371 µM | – | 0.0463 µM and 0.0508 µM and 0.0489 µM | 22 µM and > 100 µM | 0.119 µM and 0.15 µM and 0.0758 µM | 17.7 µM and > 100 µM | 0.0386 µM and 0.0333 µM and 0.0372 µM | 14.9 µM and > 100 µM | 0.0474 µM and 0.0376 µM and 0.0305 µM | 16.4 µM and > 100 µM and > 53.5 µM | 0.265 µM and 0.299 µM and 0.246 µM | – | 0.0458 µM and 0.0431 µM and 0.0437 µM | 26.9 µM and > 100 µM | 0.0298 µM and 0.0175 µM and 0.0176 µM | – | 0.0515 µM and 0.0489 µM and 0.0417 µM | > 100 |
| c1cc(OCCN2CCCCC2)ccc1CNc1ccc2nc(CCC3CCCCC3)[nH]c2c1 | 1.52 µM | 3.33 µM | 1.49 µM | 2.94 | 1.79 µM | 3.4 µM | 1.49 µM | 2.85 µM | 2.42 µM | 6.17 µM | 1.5 µM | 3.49 µM | 1.62 µM | 3.14 | 3.05 µM | 10.4 µM | 0.852 µM | 3.6 | 1.96 µM | 3.93 |
| O=c1[nH]c2c3ccccc3ccc2c2cc3c(cc12)OCO3 | – | > 100 µM | – | > 100 | – | > 100 µM | – | > 100 µM | – | > 100 µM | – | > 100 µM | – | > 100 | – | > 100 µM | – | > 100 | – | > 100 |
| CC(=O)N/C(=C\c1cccc([N+](=O)[O-])c1)c1nc2c3c(ccc2[nH]1)C(=O)c1ccccc1C3=O | – | > 100 µM | – | > 100 | – | > 100 µM | – | > 69.3 µM | – | > 100 µM | – | > 100 µM | – | > 100 | – | > 100 µM | – | > 100 | – | > 100 |
| Cc1cc2cc3c(C)cc(=O)oc3c(C)c2o1 | – | > 100 µM | – | > 100 | – | > 100 µM | – | > 100 µM | – | > 100 µM | – | > 100 µM | – | > 100 | – | > 100 µM | – | > 100 | – | > 100 |
